Test results from patent US9301923B2, “Lipids, lipid compositions, and methods of using them” (NOVARTIS AG, priority 2009, dated 2016).
Several values for one entry are separate records, joined by “and”; a condition that tells them apart may be missing. Equal entries are not always repeated. Where two headings read alike, the source gives them in different places.

Experiments:
[1] = pKa of the lipid by TNS fluorescence; format: physicochemical
Experimental: Unless explicitly indicated otherwise, all pKas referred to herein are measured in water at standard temperature and pressure. Also, unless otherwise indicated, all references to pKa are references to pKa measured using the following technique.
2 mM solution of lipid in ethanol are prepared by weighing the lipid and then dissolving in ethanol.
This is done with all eight buffers.
Priority: Column priority • Carriage Speed: Normal • Auto read: Off
The normalized fluorescence intensity vs. pH chart is then plotted in the Microsoft Excel software. The eight points are connected with a smooth line.
The pKa determined using this method is precise to about 0.2 pKa units.

Factor VII = Factor VII activity assay, in vivo liver delivery of FVII siRNA LNP; design: species or system mouse; conditions: ~48 h
Experimental: Female CD-1 mice are received from Charles River Labs and maintained on standard lab chow and water ad libitum. The animals weigh approximately 25 grams at time of dosing. Formulated siRNA is administered as a single dose at various dose levels intravenously via the lateral tail vein calculated on a (mg siRNAs/kg) basis according to individual animal weights (10 ml/kg injection volume).
Formulated siRNAs are made up of double stranded siRNA sequences specific to a target mRNA sequence, and are in the form of lipid nucleotid particles (LNPs) containing cationic lipids, stealth lipids and neutral lipids, as provided in the Examples below. The siRNA construct for use in targeting the liver is specific to Factor VII. […] FVII siRNA duplex sequence
Formulated Factor VII siRNA is administered as a single dose at various dose levels intravenously via the lateral tail vein calculated on a mg siRNAs/kg basis according to individual animal weights (10 ml/kg injection volume). Approximately 48 h after injection, the mice are euthanized by CO2 inhalation followed by exsanguinations through the vena cava. […] In some cases, small pieces (˜50 mg) of liver are collected and snap frozen in liquid nitrogen for follow up mRNA quantitation.
An assay standard curve is prepared using pooled plasma aliquots from the vehicle control animals.

[2] = Particle size and PDI by dynamic light scattering (Malvern Zetasizer); format: physicochemical
Experimental: Unless indicated otherwise, all sizes referred to herein are the average sizes (diameters) of the fully formed nanoparticle, as measured by dynamic light scattering on a Malvern Zetasizer. The nanoparticle sample is diluted in phosphate buffered saline (PBS) so that the count rate is approximately 200-400 kcts. The data is presented as a weighted average of the intensity measure.
The acronym PDI stands for polydispersity index. Unless indicated otherwise, all PDIs referred to herein are the PDI of the fully formed nanoparticle, as measured by dynamic light scattering on a Malvern Zetasizer. The nanoparticle sample is diluted in phosphate buffered saline (PBS) so that the count rate is approximately 200-400 kcts.

[3] = dose 3 mg/kg siRNA i.v., lipid/DSPC/CHOL/AVANTI 880150P 50/28/18/4, N/P 3.43
[4] = dose 3 mg/kg siRNA i.v., lipid/no neutral lipid/CHOL/AVANTI 880150P 50/0/46/4, N/P 3.43
[5] = lipid/DSPC/CHOL/AVANTI 880150P 50/28/18/4, N/P 3.43
[6] = lipid/no neutral lipid/CHOL/AVANTI 880150P 50/0/46/4, N/P 3.43
[7] = dose 1 mg/kg siRNA i.v., lipid/no neutral lipid/CHOL/GM-020 NOF 60/0/36/4, N/P 3
[8] = lipid/no neutral lipid/CHOL/GM-020 NOF 60/0/36/4, N/P 3

Row | Compound | pKa ([1]; pKa) | FVII inhib % (Factor VII; dose 1 mg/kg siRNA i.v., lipid/no neutral lipid/CHOL/AVANTI 880150P 50/0/46/4, N/P 3.43) [%] | FVII inhib % (Factor VII; [3]) [%] | FVII inhib % (Factor VII; [4]) [%] | Final size (nm) [2, 5] [nm] | PDI [2, 5] | Final size (nm) [2, 6] | PDI [2, 6] | FVII inhib % (Factor VII; [7]) [%] | Final size (nm) [2, 8] [nm] | PDI [2, 8] | pKa ([1]; aqueous buffer series with fluorescent probe TNS, probe TNS, pKa of the cationic lipid, read-out: pKa)
1 | CCCCC/C=C\C/C=C\CCCCCCCCOCC(CN1CC=CCC1)OCCOCCO[C@H]1CC[C@@]2(C)C(=CCC3C2CC[C@@]2(C)C3CC[C@@H]2[C@H](C)CCCC(C)C)C1 (some centres unmarked) [E0018] | 5.9 | 40.5 | 91.8 | 98 | 119 | 0.095 | 103 nm and 140 nm | 0.113 and 0.13 |  |  |  | 
2 | CCCCC/C=C\C/C=C\CCCCCCCCOCC(CN1CCCCC1)OCCOCCOC(=O)CCC(=O)O[C@H]1CC[C@@]2(C)C(=CCC3C2CC[C@@]2(C)C3CC[C@@H]2[C@H](C)CCCC(C)C)C1 (some centres unmarked) [E0060] | 6.43 |  |  |  |  |  |  |  | 0.0 | 90.25 | 0.171 | 
3 | CCCCC/C=C\C/C=C\CCCCCCCCOCC(CN1Cc2ccccc2C1)OCCOCCO[C@H]1CC[C@@]2(C)C(=CCC3C2CC[C@@]2(C)C3CC[C@@H]2[C@H](C)CCCC(C)C)C1 (some centres unmarked) [E0029] | 4.95 |  | 12.4 | −19.1 | 137 | 0.04 | 113 nm | 0.08 |  |  |  | 
4 | CCCCC/C=C\C/C=C\CCCCCCCCOCC(CN1CCCCC1)OC(=O)COCC(=O)O[C@H]1CC[C@@]2(C)C(=CCC3C2CC[C@@]2(C)C3CC[C@@H]2[C@H](C)CCCC(C)C)C1 (some centres unmarked) [E0047] | 5.55 |  |  | −3.4 |  |  | 112 nm | 0.061 |  |  |  | 
5 | CCCCC/C=C\C/C=C\CCCCCCCCOCC(CN1CCC[C@H]1C)OCCOCCO[C@H]1CC[C@@]2(C)C(=CCC3C2CC[C@@]2(C)C3CC[C@@H]2[C@H](C)CCCC(C)C)C1 (some centres unmarked) [E0049] | 6.85 |  |  | 78.8 |  |  | 237 nm | 0.09 |  |  |  | 
6 | CCCCC/C=C\C/C=C\CCCCCCCCOCC(CN1CCC(OC)C1)OCCO[C@H]1CC[C@@]2(C)C(=CC[C@H]3[C@@H]4CC[C@H]([C@H](C)CCCC(C)C)[C@@]4(C)CC[C@@H]32)C1 (some centres unmarked) [E0087] | 6.38 |  |  |  |  |  |  |  | 69 | 119.2 | 0.148 | 
7 | CCCCCCCC/C=C\CCCCCCCCOCC(CN1CCC(OC)C1)OCCOCCO[C@H]1CC[C@@]2(C)C(=CC[C@H]3[C@@H]4CC[C@H]([C@H](C)CCCC(C)C)[C@@]4(C)CC[C@@H]32)C1 (some centres unmarked) [E0064] | 6.83 |  |  |  |  |  |  |  | 37.2 | 169.2 | 0.144 | 
8 | CCCCC/C=C\C/C=C\CCCCCCCCCCOCC(CN1CCCC1C)OCCO[C@H]1CC[C@@]2(C)C(=CC[C@H]3[C@@H]4CC[C@H]([C@H](C)CCCC(C)C)[C@@]4(C)CC[C@@H]32)C1 (some centres unmarked) [E0070] | 6.4 |  |  |  |  |  |  |  | 50.3 | 150.9 | 0.045 | 
9 | CCCCC/C=C\C/C=C\CCCCCCCCOCC(CN1CCCC1c1ccccc1)OCCOCCO[C@H]1CC[C@@]2(C)C(=CC[C@H]3[C@@H]4CC[C@H]([C@H](C)CCCC(C)C)[C@@]4(C)CC[C@@H]32)C1 (some centres unmarked) [E0050] | 4.9 |  | −7.2 | −10.4 | 100 | 0.21 | 103 nm | 0.097 |  |  |  | 
10 | CCCCC/C=C\C/C=C\CCCCCCCCOCC(CN1CC=CC1)OCCOCCO[C@H]1CC[C@@]2(C)C(=CCC3C2CC[C@@]2(C)C3CC[C@@H]2[C@H](C)CCCC(C)C)C1 (some centres unmarked) [E0032] | 6.8 |  | 64.5 | 85.5 | 87 | 0.18 | 63 nm | 0.21 |  |  |  | 
11 | CCCCC/C=C\C/C=C\CCCCCCCCOCC(CN1CCC[C@@H]1C)OCCOCCO[C@H]1CC[C@@]2(C)C(=CCC3C2CC[C@@]2(C)C3CC[C@@H]2[C@H](C)CCCC(C)C)C1 (some centres unmarked) [E0048] | 6.56 |  |  | 88.5 |  |  | 225 nm | 0.115 |  |  |  | 
12 | CCCCC/C=C\C/C=C\CCCCCCCCCCOCC(CN1CCOCC1)OCCO[C@H]1CC[C@@]2(C)C(=CC[C@H]3[C@@H]4CC[C@H]([C@H](C)CCCC(C)C)[C@@]4(C)CC[C@@H]32)C1 (some centres unmarked) [E0068] | 4.82 |  |  |  |  |  |  |  | 28.6 | 174.0 | 0.041 | 
13 | CCCCCCCC/C=C\CCCCCCCCOCC(CN1CCCC1C)OCCO[C@H]1CC[C@@]2(C)C(=CC[C@H]3[C@@H]4CC[C@H]([C@H](C)CCCC(C)C)[C@@]4(C)CC[C@@H]32)C1 (some centres unmarked) [E0066] | 6.5 |  |  |  |  |  |  |  | 44.2 | 140.7 | 0.071 | 
14 | CCCCC/C=C\C/C=C\CCCCCCCCOC[C@H](CN1CCCCC1)OCCOCCO[C@H]1CC[C@@]2(C)C(=CCC3C2CC[C@@]2(C)C3CC[C@@H]2[C@H](C)CCCC(C)C)C1 (some centres unmarked) [E0043] | 6.33 |  | 95.7 | −11.7 | 110 | 0.24 | 76 nm | 0.15 |  |  |  | 
15 | CCCCCCCC/C=C\CCCCCCCCOCC(CN1CCCCC1)OCCOCCO[C@H]1CC[C@@]2(C)C(=CC[C@H]3[C@@H]4CC[C@H]([C@H](C)CCCC(C)C)[C@@]4(C)CC[C@@H]32)C1 (some centres unmarked) [E0063] | 6.48 |  |  |  |  |  |  |  | 33.3 | 155.5 | 0.09 | 
16 | CCCCC/C=C\C/C=C\CCCCCCCCOCC(CN1CCC(O[Si](C)(C)C(C)(C)C)C1)OCCOCCO[C@H]1CC[C@@]2(C)C(=CC[C@H]3[C@@H]4CC[C@H]([C@H](C)CCCC(C)C)[C@@]4(C)CC[C@@H]32)C1 (some centres unmarked) [E0042] |  |  | 49.1 | 84.5 | 83 | 0.11 | 73 nm | 0.19 |  |  |  | 6.7
17 | CCCCC/C=C\C/C=C\CCCCCCCCOCOCC(CN1CCCCC1)OCCOCCO[C@H]1CC[C@@]2(C)C(=CC[C@H]3[C@@H]4CC[C@H]([C@H](C)CCCC(C)C)[C@@]4(C)CC[C@@H]32)C1 (some centres unmarked) [E0115] | 6.41 |  |  |  |  |  |  |  | 68.8 | 162.5 | 0.098 | 
18 | CCCCC/C=C\C/C=C\CCCCCCCCOCC(CN1CCCC1)OCCOCCO[C@H]1CC[C@@]2(C)C(=CC[C@H]3[C@@H]4CC[C@H]([C@H](C)CCCC(C)C)[C@@]4(C)CC[C@@H]32)C1 (some centres unmarked) [E0015] | 7.39 |  | 30.7 | 77.1 | 164 | 0.06 | 130 nm | 0.05 |  |  |  | 
19 | CCCCC/C=C\C/C=C\CCCCCCCCOCC(CN1C[C@@H](C)O[C@@H](C)C1)OCCOCCO[C@H]1CC[C@@]2(C)C(=CC[C@H]3[C@@H]4CC[C@H]([C@H](C)CCCC(C)C)[C@@]4(C)CC[C@@H]32)C1 (some centres unmarked) [E0006] | 4.88 |  | 15.7 | 21.2 | 146 | 0.04 | 95 nm | 0.142 |  |  |  | 
